Assay results published in PubChem BioAssay AID449758 (The Scripps Research Institute Molecular Screening Center, 2010).
Activity calls are given as the source filed them. How the calls were made is not given here.

system: Human cells, IFNg-induced IRF-1 mRNA, SYBR qPCR; assay: inhibitors of IFNg-induced IRF-1 mRNA expression, late-stage follow-up, counter-screen for STAT1 inhibitor project, cell-based, SYBR qPCR, powder samples (AID 449758); conditions: at 10 µM; hits give low values

Compound | fold change
CCOC(=O)C(=CNc1cc(C)nn1-c1ccccc1)C(=O)OCC | 0.997 (inactive)
O=c1cc(CSc2nc3ccccc3c(=O)[nH]2)c2ccc(O)cc2o1 | 1.36 (inactive)
CCOC(=O)N1CCN(C(=O)c2ccc(-n3c(=S)[nH]c4ccccc4c3=O)cc2)CC1 | 0.883 (inactive)
Cc1cc(=O)n(C(NC(=O)c2ccccc2)C(=O)c2ccccc2)cn1 (stereo not given) | 1.24 (inactive)
Cc1ccc(-n2nc(C(=O)O)c3ccccc3c2=O)cc1C | 0.764 (inactive)
